What was measured:
[1] = tested on: kidney from a transgenic pig expressing human CD59, human CD46 and human DAF; experiment: transgenic pig kidney transplant into TPC-treated baboon; type: in vivo
Experimental: Immunoapheresis #1 reduced circulating IgM XNA levels to 40% of pretreatment levels. Two days later, a rebound to about 50% of pretreatment levels was observed, and after a second immunoapheresis plus administration of 250 mg TPC, circulating IgM xXNA levels were undetectable. Three days later, a rebound in IgM XNA to 35% pretreatment levels occurred, and administration of 250 mg TPC brought these levels to about 5%. […] On day 31, a kidney from a transgenic pig expressing human CD59, human CD46 and human DAF was transplanted into the baboon, and a bilateral nephrectomey was performed on the baboon native kidneys. Thus, the baboon was dependent upon the porcine kidneys for physiological function.

IgM XNAs = experiment: effect of TPC on xenoreactive antibody level in baboons; type: in vivo, baboon
Excerpt: The TPC molecule 410S was synthesized as described in Example 5 above. Baboons were first immunoapheresed using α-gal-columns in order to remove circulating αGal antibodies, and to set a basis for comparison of the ability of TPC to remove αGal antibodies from the circulation.
The procedures for treating and transplanting the baboons are described in Shu S. Lin et al., Transplant Immunol. 5:212-218, 1997. Descriptions of methods for making αGal-columns are contained in U.S. Pat. Nos. 5,695,759 and 5,651,968, which are herein incorporated by reference. Briefly, each baboon subject was prepared for plasma treatment by induction of anesthesia with ketamine HCl and pentamine, and anesthesia was then maintained during all procedures under inhalation and Forane™ gas. The subject's bloodstream was asceptically connected by intravenous puncture to a plasmapheresis machine which separated the plasma from the cells and platelets. The plasma was asceptically conducted to an α-gal column; effluent from the column was pumped and remixed on-line with the cells and platelets, and reinfused to the subject. This procedure was carried out continuously for 2-3 plasma volumes. The blood flow rate of 75-100 cc/min (with a plasma flow rate of 35-50 cc/min), was well tolerated by the subject. The entire column procedure lasted 1-1.5 hours.
250 mg of TPC (410S, as described in Example 5 above) was administered as noted in FIGS. 12 and 13.

xenoreactive antibodies = experiment: TPC treatment with discordant xenotransplant (pig heart) in cynomolgous monkeys; type: in vivo
Experimental: The TPC molecule 410S was prepared as described above in Example 5. Three monkeys received 250 mg TPC (# 19-97, 18-97, 21-97), and two monkeys received 250 mg control vehicle (#28-97, 23-97) every 3 days for 2 weeks (total 6 doses/animal) via IV infusion. 250 mg/5 mL per vial was supplied as sterile solution to be injected into 50 ML sterile physiological saline in an IV bag and administered IV at a rate of approximately 2-3 mLs/min. Prior to administration and 15-60 minutes after administration was complete, 1-3 mLs of blood was drawn for serum from each monkey at a site distant from the site of administration. On the day of the 6th dose, each monkey underwent a heterotopic heart transplant following drug infusion. A heart from a transgenic pig which expresses human CD59 and human CD55 was placed in the abdominal position as described (Byrne, et al., 1997, Transplantation 63:149-155) and remained in place up to 6 hours before being explanted.
Following the transplant and explant, the monkeys continued infusion of either TPC or control vehicle, as above, once per day for 9 days. Blood was drawn for serum analysis before and after each administration. The monkeys were monitored for at least 15 days after cessation of TPC administration, and blood was drawn 2 times per week for serum analysis. One monkey died 2 days post-transplant.

[2] = tested on: xenoreactive IgG (X IgG) and xenoreactive IgM (X IgM); experiment: effect of TPC on xenoreactive antibody levels in cynomolgous monkeys; type: in vivo
Experimental: TPC molecule 410S was prepared as described in Example 5. 410S or PEG control was administered to cynomolgous monkeys in doses of either 50 mg or 250 mg every 3 days for 2 weeks. Blood was drawn for serum before and after each administration. During the subsequent 2 week period, blood was drawn each Monday and Friday. Serum samples were analyzed for xenoreactive IgG (X IgG) and xenoreactive IgM (X IgM).

In the case of “(αGal(1,3)Gal β 1-4 GlcNAc)4-PEG [Example 410S]”, the “pathology analysis of the explanted pig kidney” value ([1]; Baboon 376-96, transplant on day 31, euthanized post-op day 4) is reported as “no evidence of hyperacute rejection”, the “function of the transplanted kidney” value ([1]; Baboon 376-96, transplant on day 31 with bilateral nephrectomy) is reported as “primary nonfunction” and the “IgM XNA, % pretreatment levels” value (IgM XNAs; Baboon 376-96, after next administration of 250 mg TPC) is reported as “about 5%”. For the same substance, the “circulating IgM XNA levels” value (IgM XNAs; Baboon 376-96, after second immunoapheresis plus 250 mg TPC) was “undetectable”, the “circulating levels of IgM XNA” value (IgM XNAs; Baboon 376-96, six subsequent administrations of 250 mg TPC every 3 or 4 days) was “lower each time” and the “IgM XNA, % pretreatment levels” value (IgM XNAs; Baboon 376-96, three days after first TPC (rebound)) was 35%. For the same substance, the “levels of IgM XNAs” value (IgM XNAs; Baboon 377-96, infusion of 250 mg TPC after third immunoapheresis) was “undetectable”, the “IgM XNA levels, % pretreatment levels” value (IgM XNAs; Baboon 377-96, three days after the 250 mg TPC infusion (rebound)) was “about 15%” and the xenoreactive antibody levels (xenoreactive antibodies; 250 mg TPC, during the 9 days of TPC administration following explant of the pig heart) was “maintained low levels”. The XNA levels (xenoreactive antibodies; following cessation of TPC) was “rose, but not as dramatically as in the non-TPC-treated control”, the “effect on anti-Gal IgG levels” value ([2]; 50 mg and 250 mg doses, compared with the IgM effect) was “the effect was not as dramatic” and the “anti-Gal IgM level, % of the initial level” value ([2]; 50 mg animals, 15 days post-treatment) was roughly 40%. The “anti-Gal IgM level, % of the initial level” value ([2]; 50 mg dose every 3 days, after 6 TPC treatments) was “approximately 15%”, the “anti-Gal IgM level, % of the predosing level” value ([2]; 250 mg animals, 15 days post-treatment) was 15% and the “anti-Gal IgM level, % of the initial level” value ([2]; 250 mg dose every 3 days, after 6 TPC treatments) was “approximately 5%”.

Reference: patent US20040141944A1, “Inhibition of xenoreactive antibodies” (priority 1998, published 2004)
